Values of other authors, collected in EP0396201A1 (priority 1989, dated 1990).

System: carbonic anhydrase
Conditions: carbonic anhydrase inhibitor, relative activity

times as active as p-aminobenzenesulfonamide: ~330
Compound: CC(=O)Nc1nnc(S(N)(=O)=O)s1 [Acetazolamide]
